Laboratory results as given in US12559492B2, “BRAF degraders” (C4 Therapeutics, Inc., priority 2020, dated 2026).

Target: BRAF^V600E protein (Homo sapiens, UniProt P15056, V600E)
Experiment: HiBiT cellular BRAF V600E degradation assay
Format: cell-based
Conditions: 24 h incubation; for DC50: A375.10 cells (HiBiT tag knocked in at N-terminal of BRAF V600E), concentration at which 50% of total cellular BRAF V600E is degraded; for Emax: A375.10 cells, Emax = amount of residual protein remaining in the cell after compound treatment, read-out: HiBit 24 h Emax

Chain of BRAF^V600E protein (P15056 whole entry V600E): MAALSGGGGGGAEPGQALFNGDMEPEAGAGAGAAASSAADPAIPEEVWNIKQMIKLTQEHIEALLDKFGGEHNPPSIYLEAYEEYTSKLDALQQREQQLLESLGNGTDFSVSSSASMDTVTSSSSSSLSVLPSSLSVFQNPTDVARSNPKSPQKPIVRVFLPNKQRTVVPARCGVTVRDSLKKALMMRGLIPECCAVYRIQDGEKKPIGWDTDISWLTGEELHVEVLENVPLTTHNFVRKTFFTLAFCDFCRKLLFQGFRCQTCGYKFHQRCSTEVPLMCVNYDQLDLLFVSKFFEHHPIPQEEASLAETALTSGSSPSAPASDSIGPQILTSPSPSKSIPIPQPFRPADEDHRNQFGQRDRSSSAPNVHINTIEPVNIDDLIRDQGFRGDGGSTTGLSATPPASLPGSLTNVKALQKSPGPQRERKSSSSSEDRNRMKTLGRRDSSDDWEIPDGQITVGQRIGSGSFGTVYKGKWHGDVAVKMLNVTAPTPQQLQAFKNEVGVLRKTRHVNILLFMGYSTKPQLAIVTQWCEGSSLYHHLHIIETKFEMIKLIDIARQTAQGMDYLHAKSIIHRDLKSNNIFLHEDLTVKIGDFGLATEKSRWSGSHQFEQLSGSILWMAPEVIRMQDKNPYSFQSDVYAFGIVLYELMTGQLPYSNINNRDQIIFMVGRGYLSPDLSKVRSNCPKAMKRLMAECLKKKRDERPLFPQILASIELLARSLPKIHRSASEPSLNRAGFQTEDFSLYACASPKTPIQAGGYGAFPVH

DC50 [nM]	Emax [%]	Structure (SMILES)
3.51	6.33	CCN(C)S(=O)(=O)Nc1cccc(C(=O)c2c[nH]c3ncc(-c4ccc(N5CCN(C(=O)CC6(O)CCN(c7ccc(C8CCC(=O)NC8=O)cc7F)CC6)CC5)nc4)cc23)c1F (centres unmarked) [Example 159, 5-[6-[4-[2-[1-[4-(2,6-dioxo-3-piperidyl)-2-fluoro-phenyl]-4-hydroxy-4-piperidyl]acetyl]piperazin-1-yl]-3-pyridyl]-3-[3-[[ethyl(methyl)sulfamoyl]amino]-2-fluoro-benzoyl]-1H-pyrrolo[2,3-b]pyridine]
3.12	6.7	CCN(C)S(=O)(=O)Nc1ccc(F)c(C(=O)c2c[nH]c3ncc(-c4ccc(N5CCN(C(=O)CC6(O)CCN(c7ccc(C8CCC(=O)NC8=O)cc7F)CC6)CC5)nc4)cc23)c1F (centres unmarked) [Example 160, 5-[6-[4-[2-[1-[4-(2,6-dioxo-3-piperidyl)-2-fluoro-phenyl]-4-hydroxy-4-piperidyl]acetyl]piperazin-1-yl]-3-pyridyl]-3-[3-[[ethyl(methyl)sulfamoyl]amino]-2,6-difluoro-benzoyl]-1H-pyrrolo[2,3-b]pyridine]

The next lines start with the compound.

Structure (SMILES)	DC50 [nM]	Emax [%]
CCN(C)S(=O)(=O)Nc1ccc(F)c(C(=O)c2c[nH]c3ncc(-c4cnc(N5CCN(C(=O)CC6(OP(=O)(O)O)CCN(c7ccc(C8CCC(=O)NC8=O)cc7F)CC6)CC5)nc4)cc23)c1F (centres unmarked) [Example 158e, [1-[4-(2,6-dioxo-3-piperidyl)-2-fluoro-phenyl]-4-[2-[4-[5-[3-[3-[[ethyl(methyl)sulfamoyl]amino]-2,6-difluoro-benzoyl]-1H-pyrrolo[2,3-b]pyridin-5-yl]pyrimidin-2-yl]piperazin-1-yl]-2-oxo-ethyl]-4-piperidyl]dihydrogen phosphate]	10.8	11.7
CCN(C)S(=O)(=O)Nc1ccc(F)c(C(=O)c2c[nH]c3ncc(-c4cnc(N5CCC(n6cc7c(n6)CN(c6ccc(NC8CCC(=O)NC8=O)cc6)CC7)CC5)nc4)cc23)c1F (centres unmarked) [Example 161, 6-[4-[(2,6-dioxo-3-piperidyl)amino]phenyl]-2-[1-[5-[3-[3-[[ethyl(methyl)sulfamoyl]amino]-2,6-difluoro-benzoyl]-1H-pyrrolo[2,3-b]pyridin-5-yl]pyrimidin-2-yl]-4-piperidyl]-5,7-dihydro-4H-pyrazolo[3,4-c]pyridine]	14.6	8.46
CCN(C)S(=O)(=O)Nc1cccc(C(=O)c2c[nH]c3ncc(-c4cnc(N5CCN(C(=O)CC6(O)CCN(c7ccc(C8CCC(=O)NC8=O)cc7F)CC6)CC5)nc4)cc23)c1F (centres unmarked) [Example 162, 5-[2-[4-[2-[1-[4-(2,6-dioxo-3-piperidyl)-2-fluoro-phenyl]-4-hydroxy-4-piperidyl]acetyl]piperazin-1-yl]pyrimidin-5-yl]-3-[3-[[ethyl(methyl)sulfamoyl]amino]-2-fluoro-benzoyl]-1H-pyrrolo[2,3-b]pyridine]	2.09	7.81
CCN(C)S(=O)(=O)Nc1ccc(F)c(C(=O)c2c[nH]c3ncc(-c4cnc(N5CCN(C(=O)CC6(O)CCN(c7ccc8c(N9CCC(=O)NC9=O)nn(C)c8c7)CC6)CC5)nc4)cc23)c1F [Example 163, 3-(2,4-dioxohexahydropyrimidin-1-yl)-6-[4-[2-[4-[5-[3-[3-[[ethyl(methyl)sulfamoyl]amino]-2,6-difluoro-benzoyl]-1H-pyrrolo[2,3-b]pyridin-5-yl]pyrimidin-2-yl]piperazin-1-yl]-2-oxo-ethyl]-4-hydroxy-1-piperidyl]-1-methyl-indazole]	4.52	9.67
CCN(C)S(=O)(=O)Nc1cccc(C(=O)c2c[nH]c3ncc(-c4ccc(N5CCN(C(=O)CC6(O)CCN(c7ccc(N8CCC(=O)NC8=O)cc7F)CC6)CC5)nc4)cc23)c1F [Example 164, 5-[6-[4-[2-[1-[4-(2,4-dioxohexahydropyrimidin-1-yl)-2-fluoro-phenyl]-4-hydroxy-4-piperidyl]acetyl]piperazin-1-yl]-3-pyridyl]-3-[3-[[ethyl(methyl)sulfamoyl]amino]-2-fluoro-benzoyl]-1H-pyrrolo[2,3-b]pyridine]	2.31	10.2
